Laboratory results as given in US20200377561A1, “ANTIMICROBIAL PEPTIDES AND METHODS OF TREATING GRAM-NEGATIVE PATHOGEN INFECTIONS: POLAR AND NON-POLAR FACE ANALOGS” (THE REGENTS OF THE UNIVERSITY OF COLORADO, a body corporate, priority 2017, published 2020).
Like-named read-outs stand apart in the source and are kept apart here. Peptide text beside a SMILES is read from it.

Key:
[1] = system: Pseudomonas aeruginosa ATCC 27853; format: cell-based
Description: (§1) Bacterial strains were acquired from the American Type Culture Collection (ATCC, Virginia, USA) and the National Collection of Type Cultures (NCTC, Public Health England, Salisbury, UK). Minimum Inhibitory Concentration (MIC) of peptides versus gram-negative strains-Acinetobacter baumannii NCTC 13420, and Pseudomonas aeruginosa ATCC 27853 and gram-positive strain Staphylococcus aureus ATCC 29213, were determined by broth microdilution as per the guidelines of the Clinical and Laboratory Standards Institute (“Methods for Dilution Antimicrobial Susceptibility Tests for Bacteria That Grow Aerobically”; Approved Standard-Ninth Edition. CLSI document M07-A9, 2012). Peptides were dissolved in sterile distilled water, which was also used as the drug-free vehicle control when determining peptide MICs. Prior to use in the MIC protocol, bacterial strains were grown on Mueller Hinton agar at 37° C. in an ambient atmosphere. […] A fixed inoculum of the test microorganism (5×10^5 cells/mL) is also added to the plate. The MIC is determined as the lowest concentration of compound that inhibits visible bacterial growth following incubation at 37° C. for 16-20 hours. A difference in MIC of two-fold between experimental replicates is considered to be within the normal variability of this protocol.

[2] = system: Acinetobacter baumannii NCTC 13420; format: cell-based
Description: as §1

[3] = system: Staphylococcus aureus ATCC 29213; format: cell-based
Description: as §1

Human erythrocytes = assay: Haemolysis assay using human blood; format: cell-based
Description: To determine the extent of haemolytic activity (the ability to lyse red blood cells) in test peptides, a haemolysis assay was conducted using human blood (BioIVT, West Sussex, UK). Human erythrocytes were exposed to a single fixed concentration or a range of concentrations as to determine the % haemolysis (fixed concentration) or the concentration at which 50% haemolysis occurred (HC50), respectively. Prior to the assay, whole human blood was repeatedly washed in phosphate buffered saline (PBS) under cooled conditions to remove the buffy coat, plasma and cell debris. Washed erythrocytes were diluted as to achieve 1×10^8 cells/mL in PBS. Prepared human erythrocyte samples were combined with peptide at a single fixed concentration of 128 μg/mL, or a range of concentrations (two-fold dilution series) from 1000-31.25 μg/mL. Positive and negative controls containing 2% (v/v) Triton X-100 and PBS alone, respectively, were also prepared. Samples were incubated at 37° C. for 1 hour and then centrifuged to collect intact erythrocytes. Haemoglobin release was determined by recording the optical density of the supernatant at 540 nm. Optical density values were transformed to a percentage of the positive control. Results were recorded as a percentage haemolysis at 128 μg/mL, or by plotting the percentage haemolysis versus concentration and extrapolating the HC50 using linear regression analysis (Table 2 above)
The therapeutic index is a widely-accepted parameter to represent the specificity of antimicrobial peptides for prokaryotic versus eukaryotic cells. It is calculated by the ratio of hemolytic activity and antimicrobial activity (MIC) (Table 2 above); thus, larger values of therapeutic index indicate greater specificity for prokaryotic cells. With the peptides used in this study the inventors used the HC50/MIC ratio value to calculate the therapeutic index.

[4] = Peptide hydrophobicity by RP-HPLC retention; format: physicochemical; settings: Zorbax SB-300 C8, 0.25% B/min from 10% B, 0.3 ml/min, 30° C.
Description: Retention behavior in RP-HPLC is an excellent method to represent overall peptide hydrophobicity. Retention times of peptides are highly sensitive to the conformational status of the peptides upon interaction with the hydrophobic environment of the column matrix^17,26. The non-polar faces of amphipathic alpha-helical and amphipathic cyclic beta-sheet peptides represent a preferred binding domain for interaction with the hydrophobic matrix of the reversed-phase column^27. In this study, the observed peptide hydrophobicity was determined by RP-HPLC retention time as described below and are relative hydrophobicities because they are dependent on the TFA concentration and organic solvent in the mobile phase, gradient rate, temperature, flow rate and the column used. Analytical Purification by Reversed-phase Chromatography: Analytical RP-HPLC: Column: Zorbax SB-300 C8 (150×2.1 mm ID; 5-μm particle size; 300 Å pore size). Conditions: linear AB gradient (0.25% B/min from 10% B) at a flow-rate of 0.3 ml/min, where Eluent A is 0.2% aq. TFA and Eluent B is 0.18% TFA in acetonitrile; 30° C.

[5] = system: Acinetobacter baumannii NCTC 13420; format: cell-based; settings: CA-MHB supplemented with 20% human serum (v/v)
Description: Bacterial strains were acquired from the American Type Culture Collection (ATCC, Virginia, USA) and the National Collection of Type Cultures (NCTC, Public Health England, Salisbury, UK). Minimum Inhibitory Concentration (MIC) of peptides versus gram-negative strains-Acinetobacter baumannii NCTC 13420, and Pseudomonas aeruginosa ATCC 27853 and gram-positive strain Staphylococcus aureus ATCC 29213, were determined by broth microdilution as per the guidelines of the Clinical and Laboratory Standards Institute (“Methods for Dilution Antimicrobial Susceptibility Tests for Bacteria That Grow Aerobically”; Approved Standard-Ninth Edition. CLSI document M07-A9, 2012). Peptides were dissolved in sterile distilled water, which was also used as the drug-free vehicle control when determining peptide MICs. Prior to use in the MIC protocol, bacterial strains were grown on Mueller Hinton agar at 37° C. in an ambient atmosphere. […] A fixed inoculum of the test microorganism (5×10^5 cells/mL) is also added to the plate. The MIC is determined as the lowest concentration of compound that inhibits visible bacterial growth following incubation at 37° C. for 16-20 hours. A difference in MIC of two-fold between experimental replicates is considered to be within the normal variability of this protocol. […]

[6] = cation-adjusted Mueller Hinton broth, 37° C., 16-20 hours
[7] = human erythrocytes, 37° C., 1 hour

| P. aeruginosa ATCC27853 MIC ([1]; ATCC 27853) [µg/mL] | Antimicrobial Activity MIC A. baumannii NCTC13420 ([2]; NCTC 13420) [µg/mL] | S. Aureus ATCC22213 MIC ([3]; ATCC 29213) [µg/mL] | tR (relative hydrophobicity by RP-HPLC) [4] [min] | SMILES | Haemolysis HC50 (Human erythrocytes; red cells of human, 1 h) [µg/mL] | Antimicrobial Activity MIC A. baumannii NCTC13420 plus 20% SERUM [5] [µg/mL] | P. aeruginosa ATCC27853 MIC [1, 6] [µg/mL] | Antimicrobial Activity MIC A. baumannii NCTC13420 [2, 6] [µg/mL] | S. Aureus ATCC22213 MIC [3, 6] [µg/mL] | Haemolysis HC50 (Human erythrocytes; [7]) [µg/mL] |
| --- | --- | --- | --- | --- | --- | --- | --- | --- | --- | --- |
| 4 | 2 | 64 | 87.37 | CC(=O)N[C@H](CCCCN)C(=O)N[C@H](CC(C)C)C(=O)N[C@H](CCCCN)C(=O)N[C@H](CCCCN)C(=O)N[C@H](CC(C)C)C(=O)N[C@H](CC(C)C)C(=O)N[C@H](CCCCN)C(=O)N[C@H](CCCCN)C(=O)N[C@H](CC(C)C)C(=O)N[C@H](CO)C(=O)N[C@H](CO)C(=O)N[C@H](C)C(=O)N[C@H](CCCCN)C(=O)N[C@H](CO)C(=O)N[C@H](CO)C(=O)N[C@H](CCCCN)C(=O)N[C@H](CC(C)C)C(=O)N[C@H](CO)C(=O)N[C@@H](C(=O)N[C@H](CC(C)C)C(=O)N[C@H](CC(C)C)C(=O)N[C@H](CCCCN)C(=O)N[C@H](CCCCN)C(=O)N[C@H](CC(C)C)C(=O)N[C@H](CCCCN)C(=O)N[C@H](CCCCN)C(N)=O)[C@H](C)O [compound 3] (HELM PEPTIDE1{[ac].[dK].[dL].[dK].[dK].[dL].[dL].[dK].[dK].[dL].[dS].[dS].[dA].[dK].[dS].[dS].[dK].[dL].[dS].[dT].[dL].[dL].[dK].[dK].[dL].[dK].[dK].[am]}$$$$V2.0) | >2000 | – | – | – | – | – |
| 2 | 2 | 128 | – | CC(=O)N[C@H](CCCCN)C(=O)N[C@H](CC(C)C)C(=O)N[C@H](CCCCN)C(=O)N[C@H](CCCCN)C(=O)N[C@H](CC(C)C)C(=O)N[C@H](CC(C)C)C(=O)N[C@H](CCCCN)C(=O)N[C@H](CCCCN)C(=O)N[C@H](CC(C)C)C(=O)N[C@H](CCCCN)C(=O)N[C@H](CO)C(=O)N[C@H](C)C(=O)N[C@H](CCCCN)C(=O)N[C@H](CO)C(=O)N[C@H](CO)C(=O)N[C@H](CCCCN)C(=O)N[C@H](CC(C)C)C(=O)N[C@H](CO)C(=O)N[C@@H](C(=O)N[C@H](CC(C)C)C(=O)N[C@H](CC(C)C)C(=O)N[C@H](CO)C(=O)N[C@H](CCCCN)C(=O)N[C@H](CC(C)C)C(=O)N[C@H](CCCCN)C(=O)N[C@H](CCCCN)C(N)=O)[C@H](C)O [compound 6] (HELM PEPTIDE1{[ac].[dK].[dL].[dK].[dK].[dL].[dL].[dK].[dK].[dL].[dK].[dS].[dA].[dK].[dS].[dS].[dK].[dL].[dS].[dT].[dL].[dL].[dS].[dK].[dL].[dK].[dK].[am]}$$$$V2.0) | >2000 | – | – | – | – | – |
| – | – | – | – | CC(=O)N[C@H](CCCCN)C(=O)N[C@H](CC(C)C)C(=O)N[C@H](CCCCN)C(=O)N[C@H](CCCCN)C(=O)N[C@H](CC(C)C)C(=O)N[C@H](CC(C)C)C(=O)N[C@H](CCCCN)C(=O)N[C@H](CCCCN)C(=O)N[C@H](CC(C)C)C(=O)N[C@H](CO)C(=O)N[C@H](CO)C(=O)N[C@H](C)C(=O)N[C@H](CCCCN)C(=O)N[C@H](CO)C(=O)N[C@H](CO)C(=O)N[C@H](CCCCN)C(=O)N[C@H](CC(C)C)C(=O)N[C@H](CO)C(=O)N[C@H](CO)C(=O)N[C@H](CC(C)C)C(=O)N[C@H](CC(C)C)C(=O)N[C@H](CCCCN)C(=O)N[C@H](CCCCN)C(=O)N[C@H](CC(C)C)C(=O)N[C@H](CCCCN)C(=O)N[C@H](CCCCN)C(N)=O [compound 24] (HELM PEPTIDE1{[ac].[dK].[dL].[dK].[dK].[dL].[dL].[dK].[dK].[dL].[dS].[dS].[dA].[dK].[dS].[dS].[dK].[dL].[dS].[dS].[dL].[dL].[dK].[dK].[dL].[dK].[dK].[am]}$$$$V2.0) | – | 2 | 2 | 1 | 64 | >2000 |
| – | – | – | – | CC(=O)N[C@H](C)C(=O)N[C@H](CC(C)C)C(=O)N[C@H](CCCCN)C(=O)N[C@H](CCCCN)C(=O)N[C@H](CC(C)C)C(=O)N[C@H](CC(C)C)C(=O)N[C@H](CCCCN)C(=O)N[C@H](CCCCN)C(=O)N[C@H](CC(C)C)C(=O)N[C@H](CO)C(=O)N[C@H](CO)C(=O)N[C@H](C)C(=O)N[C@H](CCCCN)C(=O)N[C@H](CO)C(=O)N[C@H](CO)C(=O)N[C@H](CCCCN)C(=O)N[C@H](CC(C)C)C(=O)N[C@H](CO)C(=O)N[C@H](CO)C(=O)N[C@H](CC(C)C)C(=O)N[C@H](CC(C)C)C(=O)N[C@H](CCCCN)C(=O)N[C@H](CCCCN)C(=O)N[C@H](CC(C)C)C(=O)N[C@H](CCCCN)C(=O)N[C@H](CCCCN)C(N)=O [compound 25] (HELM PEPTIDE1{[ac].[dA].[dL].[dK].[dK].[dL].[dL].[dK].[dK].[dL].[dS].[dS].[dA].[dK].[dS].[dS].[dK].[dL].[dS].[dS].[dL].[dL].[dK].[dK].[dL].[dK].[dK].[am]}$$$$V2.0) | – | 4 | 4 | 2 | 128 | >2000 |
